Assay results from the NIST ThermoML archive (doi:10.1021/acs.jced.7b00321).

Test: xn = mol fraction of the nth substance listed
Conditions: 101 kPa, Liquid; for viscosity: Capillary tube (Ostwald / Ubbelohde) method; for mass density: Vibrating tube method

NCCNCCO [N-(2-aminoethyl)ethanolamine] + CCO
Conditions	mass density, 293.15 K [kg/m3]	mass density, 303.15 K [kg/m3]	mass density, 313.15 K [kg/m3]	mass density, 323.15 K [kg/m3]	viscosity, 293.15 K [mPa·s]	viscosity, 303.15 K [mPa·s]	viscosity, 313.15 K [mPa·s]	viscosity, 323.15 K [mPa·s]
x1 = 0.1003	836.01	827.72	817.72	810.06	2.27	1.78	1.41	1.13
x1 = 0.2	876.03	866.47	856.04	847.84	4.21	3.09	2.35	1.79
x1 = 0.3	908.63	898.53	888.11	880.03	8.22	5.37	3.76	2.74
x1 = 0.4	935.65	925.07	915.04	906.65	14.62	9.08	6.08	4.22
x1 = 0.4997	957.92	947.38	937.71	929.72	24.18	14.41	9.37	6.19
x1 = 0.5996	976.58	966.68	957.44	949.14	36.92	21.51	13.45	8.75
x1 = 0.6992	992.84	983.3	974.42	966.36	55.46	31.16	18.74	11.65
x1 = 0.7994	1007.09	997.81	989.49	981.48	78.97	42.47	24.16	14.94
x1 = 0.9007	1019.25	1010.53	1002.88	995.08	107.09	56.14	31.76	18.8

NCCNCCN [di(2-aminoethyl)amine] + CCO
Conditions	mass density, 293.15 K [kg/m3]	mass density, 303.15 K [kg/m3]	mass density, 313.15 K [kg/m3]	mass density, 323.15 K [kg/m3]	viscosity, 293.15 K [mPa·s]	viscosity, 303.15 K [mPa·s]	viscosity, 313.15 K [mPa·s]	viscosity, 323.15 K [mPa·s]
x1 = 0.1	831.18	820.88	809.43	800.56	2.38	1.82	1.43	1.16
x1 = 0.1999	864.18	852.13	839.06	828.38	3.4	2.52	1.95	1.54
x1 = 0.3001	888.74	875.32	862.26	849.95	4.31	3.11	2.33	1.81
x1 = 0.4	905.98	892.48	879.84	866.96	5.06	3.57	2.64	2.03
x1 = 0.4998	918.77	905.55	893.25	881.28	5.59	3.93	2.89	2.2
x1 = 0.6001	928.75	915.84	904.57	892.92	6.05	4.19	3.06	2.31
x1 = 0.6992	936.55	924.86	913.73	903.03	6.39	4.38	3.15	2.37
x1 = 0.7998	943.08	931.95	921.49	911.41	6.61	4.53	3.26	2.45
x1 = 0.9007	948.15	937.76	928.32	918.94	6.8	4.65	3.31	2.5
